One block for each compound: values may come before it.
Experiments:
[1] = Quantum yield measurements versus Acridine Yellow in EtOH; format: physicochemical; conditions: for φ (%): quantum yield; for φ (quantum yield): excitation 460 nm
In short: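 Emission areas integrated over 510–700 nm were compared with Acridine Yellow in ethanol (Φ=0.47), all excited at 460 nm. The comparative equation was normalized to excitation-wavelength absorbance and solvent refractive index.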

[2] = test system: mixed primary neural cell populations; test: Flow cytometry analysis and FACS sorting of mixed primary neural cells; format: cell-based, mouse
Excerpt: Unstained controls are shown in each spectrum from about 0 to about 1 G.
To further analyze this population of compound positive cells, the two populations (Bright and Dim) were sorted out cell re-culture and RNA extraction for gene analysis.

[3] = Absorbance and fluorescence emission spectra (SpectraMax M2); format: physicochemical; conditions: for λmax Absorp. (nm) / λmax Emission (nm): MKCA compound library; for λmax Absorp. (nm) / λmax Abs. (nm): absorbance maximum; for λmax Emission (nm) / λmax Em. (nm): fluorescence emission maximum; for λmax Abs. (nm) / λmax Em. (nm): MKAC compound library
In short: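 Spectroscopic data, including quantum yields, were recorded with a SpectraMax M2 instrument and analysed in GraphPrism.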

SMILES: COc1cccc(-c2cn(-c3ccc4n3[B-](F)(F)[N+]3=C(N5CCCCC5)C=CC3=C4c3ccc(N)cc3)nn2)c1 [BDC-27]
φ (quantum yield) ([1]; BDC library, Table 2): 0.17%
λmax Absorp. ([3]; BDC library, Table 2): 472 nm
λmax Emission ([3]; BDC library, Table 2): 565 nm

SMILES: CC(=O)Nc1ccc(C2=C3C=CC(N4CCCCC4)=[N+]3[B-](F)(F)n3c2ccc3-n2cc(CC3CCCCC3)nn2)cc1 [BDCAC-8]
φ (quantum yield) ([1]; BDCAC library, Table 3): 0.9%
λmax Absorp. ([3]; BDCAC library, Table 3): 468 nm
λmax Emission ([3]; BDCAC library, Table 3): 585 nm

SMILES: CC(=O)Nc1ccc(C2=C3C=CC(N4CCCCC4)=[N+]3[B-](F)(F)n3c2ccc3-n2cc(CC3CCCC3)nn2)cc1 [BDCAC-7]
φ (quantum yield) ([1]; BDCAC library, Table 3): 1.3%
λmax Absorp. ([3]; BDCAC library, Table 3): 467 nm
λmax Emission ([3]; BDCAC library, Table 3): 585 nm

SMILES: CN(C)c1ccc(-c2cn(-c3ccc4n3[B-](F)(F)[N+]3=C(N5CCCCC5)C=CC3=C4c3ccc(N)cc3)nn2)cc1 [BDC-13]
φ (quantum yield) ([1]; BDC library, Table 2): 0.03%
λmax Absorp. ([3]; BDC library, Table 2): 475 nm
λmax Emission ([3]; BDC library, Table 2): 616 nm

SMILES: CCCc1cn(-c2ccc3n2[B-](F)(F)[N+]2=C(N4CC(C)OC(C)C4)C=CC2=C3c2ccc(N)cc2)nn1 (stereo not drawn) [MK20-48]
φ (quantum yield) ([1]; MK library, Table 5): 0.25%
λmax Absorp. ([3]; MK library, Table 5): 476 nm
λmax Emission ([3]; MK library, Table 5): 580 nm

SMILES: O=C(CCl)Nc1ccc(C2=C3C=CC(N4CCCCC4)=[N+]3[B-](F)(F)n3c2ccc3-n2cc(-c3cccc(F)c3)nn2)cc1 [BDCCA-31]
φ (quantum yield) ([1]; BDCCA library, Table 4): 1.0%
λmax Absorp. ([3]; BDCCA library, Table 4): 462 nm
λmax Emission ([3]; BDCCA library, Table 4): 568 nm

SMILES: CN(C)Cc1cn(-c2ccc3n2[B-](F)(F)[N+]2=C(N4CCCCC4)C=CC2=C3c2ccc(NC(=O)CCl)cc2)nn1 [BDCCA-2]
φ (quantum yield) ([1]; BDCCA library, Table 4): 0.4%
λmax Absorp. ([3]; BDCCA library, Table 4): 461 nm
λmax Emission ([3]; BDCCA library, Table 4): 586 nm

SMILES: Nc1ccc(C2=C3C=CC(N4CCCCC4)=[N+]3[B-](F)(F)n3c2ccc3-n2cc(CC3CCCC3)nn2)cc1 [BDC-7]
φ (quantum yield) ([1]; BDC library, Table 2): 0.23%
λmax Absorp. ([3]; BDC library, Table 2): 476 nm
λmax Emission ([3]; BDC library, Table 2): 573 nm

SMILES: Nc1ccc(C2=C3C=CC(N4CCCCC4)=[N+]3[B-](F)(F)n3c2ccc3-n2cc(C3CCCCC3)nn2)cc1 [BDC-6]
φ (quantum yield) ([1]; BDC library, Table 2): 0.24%
λmax Absorp. ([3]; BDC library, Table 2): 473 nm
λmax Emission ([3]; BDC library, Table 2): 582 nm

SMILES: CC(=O)Nc1ccc(C2=C3C=CC(N4CCCCC4)=[N+]3[B-](F)(F)n3c2ccc3-n2cc(-c3ccccc3)nn2)cc1 [BDCAC-9]
φ (quantum yield) ([1]; BDCAC library, Table 3): 1.1%
λmax Absorp. ([3]; BDCAC library, Table 3): 465 nm
λmax Emission ([3]; BDCAC library, Table 3): 579 nm

Now from value to compound, other results behind:

φ (%) ([1]; MKCA compound library): 31.22%
λmax Absorp. (nm) [3]: 464 nm
λmax Emission (nm) [3]: 563 nm
SMILES: CCCC(C)c1cn(-c2ccc3n2[B-](F)(F)[N+]2=C(NCc4ccccc4C)C=CC2=C3c2ccc(NC(=O)CCl)cc2)nn1 (stereo not drawn) [MKCA101-3]
flow cytometry profile of stained mixed neural cell populations [2]: neuronal population segregating from the main population

φ (%) ([1]; MKAC compound library): 4.18%
λmax Abs. (nm) [3]: 467 nm
λmax Em. (nm) [3]: 578 nm
SMILES: CC(=O)Nc1ccc(C2=C3C=CC(N(C)Cc4ccccc4)=[N+]3[B-](F)(F)n3c2ccc3-n2cc(C3CCCC3)nn2)cc1 [MKAC195-5]

φ (%) ([1]; MKAC compound library): 3.65%
λmax Abs. (nm) [3]: 466 nm
λmax Em. (nm) [3]: 577 nm
SMILES: CC(=O)Nc1ccc(C2=C3C=CC(N(C)Cc4ccccc4)=[N+]3[B-](F)(F)n3c2ccc3-n2cc(CC3CCCCC3)nn2)cc1 [MKAC195-8]

φ (quantum yield) ([1]; MK library, Table 5): 0.24%
λmax Absorp. ([3]; MK library, Table 5): 471 nm
λmax Emission ([3]; MK library, Table 5): 583 nm
SMILES: CN(Cc1ccccc1)Cc1cn(-c2ccc3n2[B-](F)(F)[N+]2=C(N4CCCC4)C=CC2=C3c2ccc(N)cc2)nn1 [MK215-18]

φ (%) ([1]; MKCA compound library): 4.97%
λmax Absorp. (nm) [3]: 465 nm
λmax Emission (nm) [3]: 575 nm
SMILES: CC(C)Cc1cn(-c2ccc3n2[B-](F)(F)[N+]2=C(N(C)Cc4ccccc4)C=CC2=C3c2ccc(NC(=O)CCl)cc2)nn1 [MKCA195-43]

φ (%) ([1]; MKAC compound library): 3.47%
λmax Abs. (nm) [3]: 467 nm
λmax Em. (nm) [3]: 580 nm
SMILES: CC(=O)Nc1ccc(C2=C3C=CC(N4CC(C)OC(C)C4)=[N+]3[B-](F)(F)n3c2ccc3-n2cc(C3CCCC3)nn2)cc1 (stereo not drawn) [MKAC20-5]

φ (%) ([1]; MKCA compound library): 6.71%
λmax Absorp. (nm) [3]: 466 nm
λmax Emission (nm) [3]: 573 nm
SMILES: CC1CN(C2=[N+]3C(=C(c4ccc(NC(=O)CCl)cc4)c4ccc(-n5cc(CC6CCCCC6)nn5)n4[B-]3(F)F)C=C2)CC(C)O1 (stereo not drawn) [MKCA20-8]

φ (%) ([1]; MKCA compound library): 4.98%
λmax Absorp. (nm) [3]: 463 nm
λmax Emission (nm) [3]: 573 nm
SMILES: O=C(CCl)Nc1ccc(C2=C3C=CC(N4CCCC4)=[N+]3[B-](F)(F)n3c2ccc3-n2cc(CCc3ccccc3)nn2)cc1 [MKCA215-19]

φ (quantum yield) ([1]; MK library, Table 5): 0.36%
λmax Absorp. ([3]; MK library, Table 5): 476 nm
λmax Emission ([3]; MK library, Table 5): 579 nm
SMILES: CN(Cc1ccccc1)C1=[N+]2C(=C(c3ccc(N)cc3)c3ccc(-n4cc(CC5CCCCC5)nn4)n3[B-]2(F)F)C=C1 [MK195-8]

φ (quantum yield) ([1]; MK library, Table 5): 1.08%
λmax Absorp. ([3]; MK library, Table 5): 475 nm
λmax Emission ([3]; MK library, Table 5): 562 nm
SMILES: CCCC(C)c1cn(-c2ccc3n2[B-](F)(F)[N+]2=C(NCc4ccccc4C)C=CC2=C3c2ccc(N)cc2)nn1 (stereo not drawn) [MK101-3]

φ (quantum yield) ([1]; MK library, Table 5): 0.64%
absorbance λmax ([3]; FIG. 2 normalized spectra): 474 nm
emission λmax ([3]; FIG. 2 normalized spectra): 563 nm
λmax Absorp. ([3]; MK library, Table 5): 475 nm
λmax Emission ([3]; MK library, Table 5): 564 nm
SMILES: Cc1ccccc1CNC1=[N+]2C(=C(c3ccc(N)cc3)c3ccc(-n4cc(CC5CCCCC5)nn4)n3[B-]2(F)F)C=C1 [MK101-8]

φ (%) ([1]; MKAC compound library): 15.41%
λmax Abs. (nm) [3]: 465 nm
λmax Em. (nm) [3]: 562 nm
SMILES: CCCC(C)c1cn(-c2ccc3n2[B-](F)(F)[N+]2=C(NCc4cc(OC)ccc4OC)C=CC2=C3c2ccc(NC(C)=O)cc2)nn1 (racemic) [MKAC181-3]

φ (%) ([1]; MKAC compound library): 27.73%
λmax Abs. (nm) [3]: 466 nm
λmax Em. (nm) [3]: 561 nm
SMILES: CCCC(C)c1cn(-c2ccc3n2[B-](F)(F)[N+]2=C(NCc4cc(F)cc(F)c4)C=CC2=C3c2ccc(NC(C)=O)cc2)nn1 (stereo not drawn) [MKAC412-3]

φ (%) ([1]; MKCA compound library): 6.28%
λmax Absorp. (nm) [3]: 464 nm
λmax Emission (nm) [3]: 562 nm
SMILES: O=C(CCl)Nc1ccc(C2=C3C=CC(NCc4cc(F)cc(F)c4)=[N+]3[B-](F)(F)n3c2ccc3-n2cc(CO)nn2)cc1 [MKCA412-70]

φ (%) ([1]; MKAC compound library): 20.12%
λmax Abs. (nm) [3]: 465 nm
λmax Em. (nm) [3]: 562 nm
SMILES: CC(=O)Nc1ccc(C2=C3C=CC(NCc4ccccc4C)=[N+]3[B-](F)(F)n3c2ccc3-n2cc(CC(C)C)nn2)cc1 [MKAC101-43]
